Laboratory results as given in publication PMC12491243, “Rational design of indoleamine 2,3-dioxygenase 1 (IDO1) inhibitors featuring 1,2,3-triazole derivatives with enhanced anti-inflammatory and analgesic efficacy” (Frontiers in Pharmacology, 2025).

Columns and labels:
[1] = system: CFA-induced inflammatory pain model; experiment: CFA-induced spontaneous pain, flinching and guarding behaviors; format: in vivo; settings: CFA mice, 30 mg/kg i.p. repeated, 72 h post-CFA
Procedure: To evaluate the analgesic effects of Compound 14e in vivo, we established an inflammatory pain model using intraplantar injection of CFA. Compound 14e (30 mg/kg) was administered intraperitoneally at 6 h, with subsequent doses at 48 and 72 h after CFA injection. Behavioral assessments, including von Frey testing for mechanical allodynia and heat stimuli for thermal hyperalgesia, were conducted on the injected hind paw at baseline (BL), as well as at 6, 12, 18, 24, 48 and 72 h post-CFA injection. Additionally, flinching and guarding behaviors, indicators of spontaneous pain, were evaluated 72 h after CFA injection. […] (A,B) Evaluation of CFA-induced mechanical allodynia as assessed by withdrawal frequency to 0.07 g (A) and 0.4 g (B) von Frey filaments in mice repetitive treated with 10% DMSO or compound 14e. (C) Assessment of CFA-induced thermal hyperalgesia in the latency in mice treated with 10% DMSO or compound 14e. […] The dosage of compound 14e was determined based on our preliminary experiments. Spontaneous nociceptive behavior was recorded in previous studies ([Liu et al., 2023]; [Yang et al., 2018]) Mice were placed in the Plexiglas chamber and allowed to habituate for 30 min. Following acclimatization, the number of flinches and the time spent on guarding behaviors were analyzed for 10 min. […]

[2] = target: T1, IDO1 (Homo sapiens, UniProt P14902); experiment: HeLa cell-based IDO1 inhibition assay; settings: HeLa cells, 100 ng/mL human IFN-γ, 18 h, kynurenine absorbance at 480 nm
T1 construct: endogenous in cells; host or cells: HeLa cells stimulated with 100 ng/mL human IFN-γ
T1 sequence (P14902 whole entry): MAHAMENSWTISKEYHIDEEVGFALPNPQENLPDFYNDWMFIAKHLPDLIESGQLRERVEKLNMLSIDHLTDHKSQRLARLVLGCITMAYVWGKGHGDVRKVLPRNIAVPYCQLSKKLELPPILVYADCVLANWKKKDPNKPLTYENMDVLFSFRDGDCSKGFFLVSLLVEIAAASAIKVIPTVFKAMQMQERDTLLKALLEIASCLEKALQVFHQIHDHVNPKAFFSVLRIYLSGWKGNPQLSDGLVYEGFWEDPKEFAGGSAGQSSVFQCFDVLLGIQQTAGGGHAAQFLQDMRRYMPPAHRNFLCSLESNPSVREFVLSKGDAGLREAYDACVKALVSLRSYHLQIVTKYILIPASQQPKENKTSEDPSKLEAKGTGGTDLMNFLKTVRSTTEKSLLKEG
Procedure: To evaluate the IDO1 inhibitory activity of the newly synthesized derivatives, HeLa cells with high IDO1 expression were used as the experimental model. […] To perform the HeLa cell-based IDO1 inhibition assay, HeLa cells were seeded at a density of 50,000 cells per well in a 96-well microplate containing 100 μL of DMEM supplemented with 10% fetal bovine serum and 1% penicillin-streptomycin. The cells were incubated overnight at 37 °C in a humidified atmosphere with 5% CO2. The following day, 100 μL of growth medium containing diluted inhibitors and 100 ng/mL human IFN-γ was added to each well. The cells were then incubated at 37 °C in a CO2 incubator for 18 h. […] The plate was incubated at 50 °C for 30 min and then centrifuged at 2,500 rpm for 10 min to remove any sediment. Next, 100 μL of the supernatant was transferred to a separate 96-well plate and mixed with 100 μL of 2% (w/v) 4-(dimethylamino)benzaldehyde in acetic acid. After a 10-min incubation at room temperature, the absorbance of the resulting yellow color, indicative of kynurenine, was measured at 480 nm using a microplate reader.

SMILES: O=C1COc2ccc(NC(=O)c3cccc(-c4cn(Cc5c(F)cccc5Cl)nn4)c3)cc2N1 [Compound 14e]
- spontaneous pain behaviors (flinching and guarding) [1]: significantly reduced
- IC50 [2]: 3.63 µM
